The values that follow come from article PMC3970809, “Spectral characteristics of the mutant form GGBP/H152C of D-glucose/D-galactose-binding protein labeled with fluorescent dye BADAN: influence of external factors” (PeerJ, 2014).

This assay has as its target T1, D-glucose/D-galactose-binding protein (GGBP), mutant form GGBP/H152C labeled with BADAN (Escherichia coli, UniProt P0AEE5, H175C).
T1 construct: gene mglB; GGBP/H152C-BADAN (BADAN linked to Cys 152)
The experiment in a line: BADAN fluorescence titration (Kd by nonlinear regression); stopped-flow binding kinetics.

For orientation: Kd means the concentration at which binding is half-saturated. Low values mean tighter binding, high ones weaker binding.

T1 sequence (P0AEE5 24-332 H175C limits assumed): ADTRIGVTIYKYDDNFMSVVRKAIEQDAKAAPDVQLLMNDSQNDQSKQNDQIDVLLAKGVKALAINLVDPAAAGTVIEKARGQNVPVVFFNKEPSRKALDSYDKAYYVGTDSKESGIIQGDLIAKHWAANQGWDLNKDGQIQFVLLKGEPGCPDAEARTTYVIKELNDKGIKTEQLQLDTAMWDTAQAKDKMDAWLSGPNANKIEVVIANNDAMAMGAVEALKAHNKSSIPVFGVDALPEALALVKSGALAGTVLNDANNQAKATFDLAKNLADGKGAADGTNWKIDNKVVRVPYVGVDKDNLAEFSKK

`OC[C@H]1OC(O)[C@H](O)[C@@H](O)[C@@H]1O` (stereo partly shown) [Glc] came in with a Kd of 8.5 µM.
